Reference: publication PMC8950151, “Synthesis and Evaluation of the Antifungal and Toxicological Activity of Nitrofuran Derivatives” (Pharmaceutics, 2022)
Converted amounts (≈) assume the structure as drawn.

What was measured:
T. rubrum ATCC MYA-4438 = assay: Quality control of dermatophyte susceptibility assay, MIC90; assay type: cell-based; conditions: Trichophyton rubrum; T. rubrum ATCC MYA-4438 control strain
Protocol: The experiments were performed according to CLSI […]-A2 [65] for dermatophytes, with minor modifications as described by Costa-Orlandi et al.. The fungal suspensions were adjusted by counting the conidia in the hematocytometer to reach a final concentration of 2.5 × 10^3 cells/mL in RPMI-1640 medium. This was added to the wells at the appropriate compound concentrations and incubated at 35 °C for 96 h with agitation (150 rpm). Visual and colorimetric readings were taken with the addition of 20 μL of 0.03% resazurin [61]. Quality control was performed using the strain of T. rubrum ATCC MYA-4438, with the drug TRB.

C. krusei (ATCC 6258) [1] = assay: Susceptibility test (CLSI M27-A3 broth microdilution, resazurin readout), MIC90; assay type: cell-based, Candida krusei; conditions: Pichia kudriavzevii, ATCC6258, 24 h
[2] = system: Candida albicans (ATCC 90028); assay: as above; assay type: cell-based; conditions: ATCC90028, C. albicans, 24 h, 37 °C
in vivo = conditions: AU37 [glp-4 (bn2) I, sek-1 (km4) X], Caenorhabditis elegans, C. elegans larvae viability
Protocol: The experiments were carried out with the mutant strain (AU37 [glp-4 (bn2) I; […]]). The strain was maintained on plates containing nematode growth medium (NGM) seeded with Escherichia coli OP50 at 16 °C. The stage of synchronization of young adults at stage L4 was performed for the toxicity test. About 20 larvae were transferred to each well of 96-well plates containing 100 μL of a medium composed of 60% of 50 mM NaCl; 40% BHI broth; 10 mg/mL cholesterol in ethanol; 200 mg/mL ampicillin and 90 mg/mL kanamycin. Then, 100 μL of dilutions of nitrofuran derivatives (showing the best selectivity index against the fungal species) were added. […] Plates were incubated at 25 °C for 24 h. Survival was assessed by the mobility and shape of the nematode (stick-shaped larvae were considered dead, while sinusoidal larvae were considered alive) under an inverted optical microscope on 40× objective lenses.

[3] = system: Trichophyton mentagrophytes (ATCC 11481); assay: Minimum fungicidal concentration (MFC); assay type: cell-based; conditions: Trichophyton mentagrophytes, ATCC11481; T. mentagrophytes
[4] = system: Histoplasma capsulatum (G217-B/ATCC 26032); assay: microbe, parasite or virus in culture; assay type: cell-based; conditions: ATCC26032
[5] = system: Cryptococcus neoformans (H99/ATCC 208821); assay: Minimum fungicidal concentration (MFC); assay type: cell-based; conditions: ATCC208821, C. neoformans
C. glabrata (ATCC 90030) [6] = assay: Minimum fungicidal concentration (MFC); assay type: cell-based, Candida glabrata; conditions: Nakaseomyces glabratus, ATCC90030; C. glabrata; read-out: MFC
[7] = system: Paracoccidioides brasiliensis (Pb 18); assay: microbe, parasite or virus in culture; assay type: cell-based; conditions: for MFC: Paracoccidioides brasiliensis
[8] = system: Cryptococcus neoformans (H99/ATCC 208821); assay: Susceptibility test (CLSI M27-A3 broth microdilution, resazurin readout), MIC90; assay type: cell-based; conditions: ATCC208821, 48 h
[9] = system: Histoplasma capsulatum (G217-B/ATCC 26032); assay: microbe, parasite or virus in culture; assay type: cell-based; conditions: ATCC26032, 144 h
in vitro = conditions: human
[10] = system: Candida albicans (ATCC 90028); assay: Minimum fungicidal concentration (MFC); assay type: cell-based; conditions: ATCC90028, C. albicans
Candida species = assay: Susceptibility test (CLSI M27-A3), MIC90, stated for Candida species together; assay type: cell-based; conditions: read-out: MIC90 against Candida species, Candida species (C. albicans, C. krusei, C. glabrata) taken together
T. rubrum (ATCC 28289) [11] = assay: Minimum fungicidal concentration (MFC); assay type: cell-based, Trichophyton rubrum; conditions: for MFC: Trichophyton rubrum, ATCC28289
[12] = system: A549 (ATCC CCL-185) lung epithelial cell line; assay: Cytotoxicity assay in monolayer by resazurin colorimetric method; assay type: cell-based; conditions: Homo sapiens, A549 cells, 72 h
C. glabrata (ATCC 90030) [13] = assay: Susceptibility test (CLSI M27-A3 broth microdilution, resazurin readout), MIC90; assay type: cell-based, Candida glabrata; conditions: Nakaseomyces glabratus, ATCC90030, 24 h, 37 °C
C. krusei (ATCC 6258) [14] = assay: Minimum fungicidal concentration (MFC); assay type: cell-based, Candida krusei; conditions: Pichia kudriavzevii, ATCC6258
T. rubrum (ATCC 28289) [15] = assay: Susceptibility assay for dermatophytes (CLSI M38-A2, resazurin), MIC90; assay type: cell-based; conditions: Trichophyton rubrum, ATCC28289, 96 h, 35 °C
[16] = system: Trichophyton mentagrophytes (ATCC 11481); assay: as above; assay type: cell-based; conditions: Trichophyton mentagrophytes, ATCC11481, 96 h, T. mentagrophytes, 35 °C, read-out: MIC90

Structure (SMILES) | MIC90 (C. krusei (ATCC 6258) [1]) | MIC90 [2] | MFC [3] | MFC [4] | MFC [5] | MFC (C. glabrata (ATCC 90030) [6]) | MFC [7] | MIC90 [8] | MIC90 [9] | IC50 (in vitro) | MFC [10] | MFC (T. rubrum (ATCC 28289) [11]) | IC50 [12] | MIC90 (C. glabrata (ATCC 90030) [13]) | MFC (C. krusei (ATCC 6258) [14]) | MIC90 (T. rubrum (ATCC 28289) [15]) | MIC90 [16] | melting point | further results
CN(C/C=C/C#CC(C)(C)C)Cc1cccc2ccccc12 [TRB, terbinafine] |  |  |  |  |  |  |  |  |  |  |  |  |  |  |  |  |  |  | MIC90 (T. rubrum ATCC MYA-4438): 0.03 µg/mL (≈ 0.103 µM)
O=C(/C=C/c1ccccc1)OCc1ccc([N+](=O)[O-])o1 [Compound 1] | 31.2 µg/mL (≈ 114 µM) | 3.9 µg/mL (≈ 14.3 µM) | 15.6 µg/mL (≈ 57.1 µM) | > 250 µg/mL | 31.2 µg/mL (≈ 114 µM) | > 250 µg/mL | 62.5 µg/mL (≈ 229 µM) | 31.2 µg/mL (≈ 114 µM) | > 250 µg/mL | 240 µg/mL (≈ 880 µM) | 125 µg/mL (≈ 457 µM) | > 250 µg/mL | 250 µg/mL (≈ 915 µM) | 7.81 µg/mL (≈ 28.6 µM) | 31.2 µg/mL (≈ 114 µM) | > 250 µg/mL | 15.6 µg/mL (≈ 57.1 µM) |  | viability at 24 h, 250 µg/mL (in vivo): > 94%; fungistatic / fungicidal profile [7]: fungistatic profile; MIC90 (Candida species): 3.9 µg/mL (≈ 14.3 µM)
O=C(/C=C/c1ccc([N+](=O)[O-])o1)c1ccc(Cl)cc1Cl [Compound 16, (E)-1-(2,4-dichlorophenyl)-3-(5-nitrofuran-2-yl)prop-2-en-1-one] | > 250 µg/mL | 250 µg/mL (≈ 801 µM) | 7.8 µg/mL (≈ 25 µM) | 62.5 µg/mL (≈ 200 µM) | ≥ 250 µg/mL | > 250 µg/mL | 1.95 µg/mL (≈ 6.25 µM) | ≥ 250 µg/mL | 62.5 µg/mL (≈ 200 µM) | 29.9 µg/mL (≈ 95.8 µM) | > 250 µg/mL | 31.2 µg/mL (≈ 100 µM) | 35.6 µg/mL (≈ 114 µM) | > 250 µg/mL | > 250 µg/mL | 7.8 µg/mL (≈ 25 µM) | 7.8 µg/mL (≈ 25 µM) | 164 to 165 °C | fungistatic / fungicidal profile (T. rubrum (ATCC 28289) [11]; MFC versus MIC90): fungistatic profile
O=C(NCCCn1ccnc1)c1ccc([N+](=O)[O-])o1 [Compound 2, N-(3-(1H-imidazol-1-yl)propyl)-5-nitrofuran-2-carboxamide] | > 250 µg/mL | > 250 µg/mL | 125 µg/mL (≈ 473 µM) | > 250 µg/mL | ≥ 250 µg/mL | > 250 µg/mL | 125 µg/mL (≈ 473 µM) | ≥ 250 µg/mL | 250 µg/mL (≈ 946 µM) | 90.8 µg/mL (≈ 343 µM) | > 250 µg/mL | > 250 µg/mL | 49.1 µg/mL (≈ 186 µM) | > 250 µg/mL | > 250 µg/mL | 125 µg/mL (≈ 473 µM) | 125 µg/mL (≈ 473 µM) | 144 to 148 °C | 
CS(=O)(=O)c1ccc(C(=O)/C=C/c2ccc([N+](=O)[O-])o2)cc1 [Compound 15, (E)-1-(4-(methylsulfonyl)phenyl)-3-(5-nitrofuran-2-yl)prop-2-en-1-one] | > 250 µg/mL | > 250 µg/mL | 15.6 µg/mL (≈ 48.6 µM) | > 250 µg/mL | ≥ 250 µg/mL | > 250 µg/mL | 7.81 µg/mL (≈ 24.3 µM) | ≥ 250 µg/mL | > 250 µg/mL | 11.5 µg/mL (≈ 35.8 µM) | > 250 µg/mL | 15.6 µg/mL (≈ 48.6 µM) | 34.2 µg/mL (≈ 107 µM) | > 250 µg/mL | > 250 µg/mL | 7.8 µg/mL (≈ 24.3 µM) | 7.8 µg/mL (≈ 24.3 µM) | 197 to 200 °C (dec.) | 
